# Calls of active or inactive are those of the source. The calls are words filed in the database; no cut-off is given here. Non-standard residues stand in square brackets, D forms with d. Residues, ends and D or L forms follow the SMILES beside them. *: point of attachment. NH(2-(1-naphthyl)ethyl) = c1ccc2c(CCN*)cccc2c1; Tryptamide = c1ccc2c(CCN*)c[nH]c2c1; NMeF = CN[C@@H](Cc1ccccc1)C(=O)O; NMeL = CN[C@@H](CC(C)C)C(=O)O; NHPhenethyl = c1ccc(CCN*)cc1; NMeV = CN[C@H](C(=O)O)C(C)C; NMeC = CN[C@@H](CS)C(=O)O; NMeA = CN[C@@H](C)C(=O)O
# Legend:
# [1] = tested on: Trypanosoma brucei rhodesiense; experiment: Antiprotozoal activity against trypomastigote stage of Trypanosoma brucei rhodesiense STIB900 after 72 hrs by Alamar Blue assay; format: functional, organism-based; conditions: for IC50: STIB900, 72 h
# Plasmodium falciparum = experiment: Antiprotozoal activity against IEF stage of Plasmodium falciparum NF54 after 48 hrs by [3H]-hypoxanthine incorporation assay; format: functional, organism-based
# [2] = Passive permeability of the compound at 500 uM after 5 hrs by PAMPA; format: ADME
# [3] = Half life in Galleria mellonella hemolymph plasma at 0.5 mM by HPLC-MS method; format: ADME, cell-free
# Staphylococcus aureus [4] = experiment: Antibacterial activity against Staphylococcus aureus ATCC 29213 assessed as growth inhibition up to 128 ug/ml; format: functional, organism-based
# Staphylococcus aureus [5] = experiment: Antibacterial activity against methicillin-resistant Staphylococcus aureus ATCC 43300 assessed as growth inhibition up to 128 ug/ml; format: functional, organism-based
# Enterococcus faecalis = experiment: Antibacterial activity against Enterococcus faecalis ATCC 29212 assessed as growth inhibition up to 128 ug/ml; format: functional, organism-based
# Micrococcus luteus = experiment: Antibacterial activity against Micrococcus luteus ATCC 9341 assessed as growth inhibition up to 128 ug/ml; format: functional, organism-based
# Escherichia coli = experiment: Antibacterial activity against Escherichia coli ATCC 25922 assessed as growth inhibition up to 128 ug/ml; format: functional, organism-based
# Pseudomonas aeruginosa = experiment: Antibacterial activity against Pseudomonas aeruginosa ATCC 27853 assessed as growth inhibition up to 128 ug/ml; format: functional, organism-based
smiles,measurement,setting,value
CC(C)C[C@@H](N)C(=O)N[C@H](CC(C)C)C(=O)N[C@H](CC(C)C)C(=O)N[C@H](CC(C)C)C(=O)NCCc1ccccc1,IC50,[1],1.4 to 2.1 µg/mL
CN[C@@H](CC(C)C)C(=O)N(C)[C@@H](CC(C)C)C(=O)N(C)[C@@H](CC(C)C)C(=O)N(C)[C@@H](CC(C)C)C(=O)N(C)[C@H](CC(C)C)C(=O)NCCc1ccccc1,IC50,[1],1.4 to 2.1 µg/mL
CN[C@H](CC(C)C)C(=O)N(C)[C@H](CC(C)C)C(=O)N(C)[C@H](CC(C)C)C(=O)N(C)[C@H](CC(C)C)C(=O)NCCc1ccccc1,IC50,[1],1.4 to 2.1 µg/mL
CCC(C)[C@H]1NC(=O)[C@@H](C(C)C)NC(=O)[C@H]([C@@H](C)O)NC(=O)[C@H](Cc2c[nH]c3ccccc23)NC(=O)[C@@H](NC(C)=O)[C@@H](C)OC(=O)[C@H](CC(C)C)NC1=O (some centres undefined),IC50,[1],31.6 µg/mL
CN[C@@H](CC(C)C)C(=O)N(C)[C@H](CC(C)C)C(=O)N(C)[C@@H](CC(C)C)C(=O)N(C)[C@@H](CC(C)C)C(=O)NCCc1ccccc1,IC50,[1],1.4 to 2.1 µg/mL
CC(C)C[C@@H](NC=O)C(=O)N[C@@H]1C(=O)N[C@H](Cc2ccccc2)C(=O)N[C@H](C(C)C)C(=O)N[C@@H](Cc2ccc(O)cc2)C(=O)N[C@@H](Cc2c[nH]c3ccccc23)C(=O)O[C@@H]1C,IC50,Plasmodium falciparum,0.995 µg/mL
CN[C@@H](CC(C)C)C(=O)N(C)[C@@H](CC(C)C)C(=O)N(C)[C@H](CC(C)C)C(=O)N(C)[C@@H](CC(C)C)C(=O)NCCc1ccccc1,IC50,[1],17.5 µg/mL
CN[C@H](CC(C)C)C(=O)N(C)[C@@H](CC(C)C)C(=O)N(C)[C@@H](CC(C)C)C(=O)N(C)[C@@H](CC(C)C)C(=O)NCCc1ccccc1,IC50,[1],1.4 to 2.1 µg/mL
CC(C)C[C@@H](N)C(=O)N[C@@H](CC(C)C)C(=O)N(C)[C@@H](CC(C)C)C(=O)N(C)[C@@H](CC(C)C)C(=O)NCCc1ccccc1,IC50,[1],1.4 to 2.1 µg/mL
CN[C@@H](CC(C)C)C(=O)N(C)[C@@H](CC(C)C)C(=O)N(C)[C@@H](CC(C)C)C(=O)N(C)[C@@H](CC(C)C)C(=O)N(C)[C@@H](CC(C)C)C(=O)NCCc1ccccc1,Activity,[1],Active
CC(C)[C@H](N)C(=O)N[C@H](C(=O)N[C@H](C(=O)N[C@@H](Cc1ccccc1)C(=O)NCCc1ccccc1)C(C)C)C(C)C (H-VVVF-NHPhenethyl),permeability,[2],Impermeable
CC(C)C[C@H](NC(=O)[C@@H](NC(=O)[C@@H](NC(=O)[C@@H](N)C(C)C)C(C)C)C(C)C)C(=O)NCCc1ccccc1 (H-VVVL-NHPhenethyl),permeability,[2],Impermeable
same,half-life at 500 µM,[3],30 min
CN[C@@H](C)C(=O)N(C)[C@@H](CC(C)C)C(=O)N(C)[C@@H](CC(C)C)C(=O)N(C)[C@@H](CC(C)C)C(=O)NCCc1ccccc1 (H-[NMeA][NMeL][NMeL][NMeL]-NHPhenethyl),IC50,Plasmodium falciparum,1.85 µg/mL
CN[C@@H](Cc1ccccc1)C(=O)N[C@H](C(=O)N(C)[C@H](C(=O)N(C)[C@H](C(=O)N(C)[C@H](C(=O)N(C)[C@@H](Cc1ccccc1)C(=O)NCCc1ccccc1)C(C)C)C(C)C)C(C)C)C(C)C (H-[NMeF]V[NMeV][NMeV][NMeV][NMeF]-NHPhenethyl),IC50,Plasmodium falciparum,0.14 µg/mL
CN[C@@H](Cc1ccccc1)C(=O)N(C)[C@@H](Cc1ccccc1)C(=O)N(C)[C@@H](Cc1ccccc1)C(=O)N(C)[C@@H](Cc1ccccc1)C(=O)NCCc1ccccc1 (H-[NMeF][NMeF][NMeF][NMeF]-NHPhenethyl),Activity,[1],Active
CN[C@@H](Cc1ccccc1)C(=O)N(C)[C@@H](Cc1ccccc1)C(=O)N(C)[C@@H](Cc1ccccc1)C(=O)N(C)[C@@H](Cc1ccccc1)C(=O)N(C)[C@@H](Cc1ccccc1)C(=O)NCCc1ccccc1 (H-[NMeF][NMeF][NMeF][NMeF][NMeF]-NHPhenethyl),IC50,Plasmodium falciparum,0.2 µg/mL
same,Activity,[1],Active
same,growth inhibition (GI),Staphylococcus aureus [4],inactive
same,growth inhibition (GI),Staphylococcus aureus [5],inactive
same,growth inhibition (GI),Enterococcus faecalis,inactive
same,growth inhibition (GI),Micrococcus luteus,inactive
same,growth inhibition (GI),Escherichia coli,inactive
same,growth inhibition (GI),Pseudomonas aeruginosa,inactive
CN[C@@H](Cc1ccccc1)C(=O)N(C)[C@@H](Cc1ccccc1)C(=O)N(C)[C@@H](Cc1ccccc1)C(=O)N(C)[C@@H](Cc1ccccc1)C(=O)N(C)[C@@H](Cc1ccccc1)C(=O)N(C)[C@@H](Cc1ccccc1)C(=O)NCCc1ccccc1 (H-[NMeF][NMeF][NMeF][NMeF][NMeF][NMeF]-NHPhenethyl),Activity,[1],Active
CN[C@@H](Cc1ccccc1)C(=O)N(C)[C@H](C(=O)N(C)[C@@H](CC(C)C)C(=O)N(C)[C@H](C(=O)NCCc1ccccc1)C(C)C)C(C)C (H-[NMeF][NMeV][NMeL][NMeV]-NHPhenethyl),IC50,Plasmodium falciparum,0.1 µg/mL
CN[C@@H](CC(C)C)C(=O)N(C)[C@@H](CC(C)C)C(=O)N(C)[C@@H](CC(C)C)C(=O)N(C)[C@@H](C)C(=O)NCCc1ccccc1 (H-[NMeL][NMeL][NMeL][NMeA]-NHPhenethyl),IC50,Plasmodium falciparum,31 µg/mL
CN[C@@H](CC(C)C)C(=O)N(C)[C@@H](CC(C)C)C(=O)N(C)[C@@H](CC(C)C)C(=O)N(C)[C@@H](CS)C(=O)NCCc1ccccc1 (H-[NMeL][NMeL][NMeL][NMeC]-NHPhenethyl),IC50,[1],5.6 µg/mL
CN[C@@H](CC(C)C)C(=O)N(C)[C@@H](CC(C)C)C(=O)N(C)[C@@H](CC(C)C)C(=O)N(C)[C@@H](CS)C(=O)NCCc1cccc2ccccc12 (H-[NMeL][NMeL][NMeL][NMeC]-{NH(2-(1-naphthyl)ethyl)}),IC50,[1],7.5 µg/mL
CN[C@@H](CC(C)C)C(=O)N(C)[C@@H](CC(C)C)C(=O)N(C)[C@@H](CC(C)C)C(=O)N(C)[C@@H](CC(C)C)C(=O)NCCc1c[nH]c2ccccc12 (H-[NMeL][NMeL][NMeL][NMeL]-Tryptamide),IC50,Plasmodium falciparum,0.6 µg/mL
CN[C@@H](CC(C)C)C(=O)N(C)[C@@H](CC(C)C)C(=O)N(C)[C@@H](CC(C)C)C(=O)N(C)[C@@H](CC(C)C)C(=O)NCCc1cccc2ccccc12 (H-[NMeL][NMeL][NMeL][NMeL]-{NH(2-(1-naphthyl)ethyl)}),IC50,[1],1 µg/mL
CN[C@@H](CC(C)C)C(=O)N(C)[C@@H](CC(C)C)C(=O)N(C)[C@@H](CC(C)C)C(=O)N(C)[C@@H](CC(C)C)C(=O)N(C)[C@@H](CC(C)C)C(=O)N(C)[C@@H](CC(C)C)C(=O)NCCc1ccccc1 (H-[NMeL][NMeL][NMeL][NMeL][NMeL][NMeL]-NHPhenethyl),Activity,[1],Active
same,growth inhibition (GI),Staphylococcus aureus [4],inactive
same,growth inhibition (GI),Staphylococcus aureus [5],inactive
same,growth inhibition (GI),Enterococcus faecalis,inactive
same,growth inhibition (GI),Micrococcus luteus,inactive
same,growth inhibition (GI),Escherichia coli,inactive
same,growth inhibition (GI),Pseudomonas aeruginosa,inactive
CN[C@@H](CC(C)C)C(=O)N(C)[C@@H](CC(C)C)C(=O)N(C)[C@@H](CC(C)C)C(=O)N(C)[C@@H](CC(C)C)C(=O)N(C)[C@@H](CC(C)C)C(=O)N(C)[C@@H](CC(C)C)C(=O)N(C)[C@@H](CC(C)C)C(=O)NCCc1ccccc1 (H-[NMeL][NMeL][NMeL][NMeL][NMeL][NMeL][NMeL]-NHPhenethyl),Activity,[1],Active
CN[C@H](C(=O)N(C)[C@H](C(=O)N(C)[C@H](C(=O)N(C)[C@@H](CS)C(=O)NCCc1ccccc1)C(C)C)C(C)C)C(C)C (H-[NMeV][NMeV][NMeV][NMeC]-NHPhenethyl),IC50,[1],3 µg/mL
CN[C@H](C(=O)N(C)[C@H](C(=O)N(C)[C@H](C(=O)N(C)[C@@H](Cc1ccccc1)C(=O)NCCc1ccccc1)C(C)C)C(C)C)C(C)C (H-[NMeV][NMeV][NMeV][NMeF]-NHPhenethyl),permeability,[2],Permeable
CN[C@H](C(=O)N(C)[C@H](C(=O)N(C)[C@H](C(=O)N(C)[C@@H](CC(C)C)C(=O)NCCc1ccccc1)C(C)C)C(C)C)C(C)C (H-[NMeV][NMeV][NMeV][NMeL]-NHPhenethyl),permeability,[2],Permeable
same,half-life at 500 µM,[3],> 240 min
CN[C@H](C(=O)N(C)[C@H](C(=O)N(C)[C@H](C(=O)N(C)[C@H](C(=O)N(C)[C@H](C(=O)NCCc1ccccc1)C(C)C)C(C)C)C(C)C)C(C)C)C(C)C (H-[NMeV][NMeV][NMeV][NMeV][NMeV]-NHPhenethyl),Activity,[1],Active
CN[C@H](C(=O)N(C)[C@H](C(=O)N(C)[C@H](C(=O)N(C)[C@H](C(=O)N(C)[C@H](C(=O)N(C)[C@@H](Cc1ccccc1)C(=O)NCCc1ccccc1)C(C)C)C(C)C)C(C)C)C(C)C)C(C)C (H-[NMeV][NMeV][NMeV][NMeV][NMeV][NMeF]-NHPhenethyl),growth inhibition (GI),Staphylococcus aureus [4],inactive
same,growth inhibition (GI),Staphylococcus aureus [5],inactive
same,growth inhibition (GI),Enterococcus faecalis,inactive
same,growth inhibition (GI),Micrococcus luteus,inactive
same,growth inhibition (GI),Escherichia coli,inactive
same,growth inhibition (GI),Pseudomonas aeruginosa,inactive
CN[C@H](C(=O)N(C)[C@H](C(=O)N(C)[C@H](C(=O)N(C)[C@H](C(=O)N(C)[C@H](C(=O)N(C)[C@@H](CC(C)C)C(=O)NCCc1ccccc1)C(C)C)C(C)C)C(C)C)C(C)C)C(C)C (H-[NMeV][NMeV][NMeV][NMeV][NMeV][NMeL]-NHPhenethyl),growth inhibition (GI),Staphylococcus aureus [4],inactive
same,growth inhibition (GI),Staphylococcus aureus [5],inactive
same,growth inhibition (GI),Enterococcus faecalis,inactive
same,growth inhibition (GI),Micrococcus luteus,inactive
same,growth inhibition (GI),Escherichia coli,inactive
same,growth inhibition (GI),Pseudomonas aeruginosa,inactive
CN[C@H](C(=O)N(C)[C@H](C(=O)N(C)[C@H](C(=O)N(C)[C@H](C(=O)N(C)[C@H](C(=O)N(C)[C@H](C(=O)NCCc1ccccc1)C(C)C)C(C)C)C(C)C)C(C)C)C(C)C)C(C)C (H-[NMeV][NMeV][NMeV][NMeV][NMeV][NMeV]-NHPhenethyl),Activity,[1],Active
same,growth inhibition (GI),Staphylococcus aureus [4],inactive
same,growth inhibition (GI),Staphylococcus aureus [5],inactive
same,growth inhibition (GI),Enterococcus faecalis,inactive
same,growth inhibition (GI),Micrococcus luteus,inactive
same,growth inhibition (GI),Escherichia coli,inactive
same,growth inhibition (GI),Pseudomonas aeruginosa,inactive
CN[C@H](C(=O)N(C)[C@H](C(=O)N(C)[C@H](C(=O)N(C)[C@H](C(=O)N(C)[C@H](C(=O)N(C)[C@H](C(=O)N(C)[C@H](C(=O)NCCc1ccccc1)C(C)C)C(C)C)C(C)C)C(C)C)C(C)C)C(C)C)C(C)C (H-[NMeV][NMeV][NMeV][NMeV][NMeV][NMeV][NMeV]-NHPhenethyl),Activity,[1],Active
